# Test results: patent US6844353B2, “Fungicidal properties of sampangine and its analogs to agriculturally important fungal plant pathogens” (The United States of America as represented by the …, priority 2003, dated 2005)
# Where two headings read alike, the source gives them in different places.
# Legend:
# Assay in all cases: 96-well microtiter plate assay, fungal growth inhibition
# B. cinerea = format: cell-based, Botrytis cinerea; settings: for Percent inhibition−Percent Stimulation±SEM: B. cinerea; for inhibition at 0.3 µM / inhibition at 3 µM / inhibition at 30 µM: Botrytis cinerea, read-out: Percent inhibition−Percent Stimulation±SEM
# From the text: (§1) Pathogen production. Isolates of Colletotrichum acutatum Simmonds, Colletotrichum fragariae Brooks, and Colletotrichum gloeosporioides (Penz.) Penz. & Sacc. in Penz. were obtained from B. J. Smith, USDA, ARS, Small Fruit Research Station, Poplarville, Miss. Colletotrichum fragariae (isolate CF63), C. acutatum (isolate CAGoff), and C. gloeosporioides (isolate CG162) were used for all pathogen and bioautography studies. Isolate CF63 is one of the most virulent isolates at infecting strawberry plants and inducing both crown and fruit rot (Smith and Black, 1990). CF63, CAGoff, and CG162 were used as standard test isolates because of our extensive knowledge of these isolates and their known fungicide sensitivity profiles in both bioautography and microtiter formats. The three Colletotrichum species were isolated from strawberry (Fragaria x ananassa Duchesne). Botrytis cinerea Pers.: Fr, was isolated from commercial grape (Vitis vinifera L.) and Fusarium oxysporum Schlechtend: Fr from orchid (Cynoches sp.). Phomopsis viticola (Sacc.) and P. obscurans (Ellis & Everh.) Sutton were from Mike A. Ellis, Ohio State University, Wooster, Ohio. Fungi were grown on potato-dextrose agar (PDA, Difco, Detroit, Mich.) in 9 cm petri dishes and incubated in a growth chamber at 24±2° C. and under cool-white fluorescent lights ([…]·m^−2·sec^−1 light) with 12 hour photoperiod.
# (§2) Inoculum preparation. Conidia were harvested from 7-10 day-old cultures by flooding plates with 5 mL of sterile distilled water and dislodging conidia by softly brushing the colonies with an L-shaped glass rod. Conidial suspensions were filtered through sterile miracloth (Calbiochem-Novabiochem Corp., La Jolla, Calif.) to remove mycelia. Conidia concentrations were determined photometrically, from a standard curve based on the percent of transmittance (% T) at 625 nm and suspensions were then adjusted with sterile distilled water to a concentration of 1.0×10^6 conidia/mL.
# (§3) Microtiter assay. A standardized 96-well microtiter plate assay developed for discovery of natural product fungicidal agents was used to evaluate naturally occurring antifungal agents from Macaranga monanara. A 96-well microtiter assay was used to determine sensitivity of B. cinerea, C. acutatum, C. fragariae, C. gloeosporioides, F. oxysporum, Phomopsis viticola, and P. obscurans to the various antifungal agents in comparison with known fungicidal standards. Vinclozolin, captan, and thiabendazole, which represent three different modes of action, were used as standards in this experiment. Each fungus was challenged in a dose-response format using test compounds where the final treatment concentrations were 0.3, 3.0 and 30.0 μM. Microtiter plates (Nunc MicroWell, untreated; Roskilde, Denmark) were covered with a plastic lid and incubated in a growth chamber as described previously for fungal growth. Growth was then evaluated by measuring absorbance of each well at 620 nm using a microplate photometer (Packard Spectra Count, Packard Instrument Co., Downers Grove, Ill.). Microtiter plates (Nunc MicroWell, untreated; Roskilde, Denmark) were covered with a plastic lid and incubated in a growth chamber at 24±1° C. and 12 hour photoperiod under 60±5 μmol light. Growth was then evaluated by measuring absorbance of each well at 620 nm using a microplate photometer (Packard Spectra Count, Packard Instrument Co., Downers Grove, Ill.).
# (§4) Microbioassy Experimental Design. Chemical sensitivity each of B. cinerea, C. acutatum, C. fragariae, C. gloeosporiodes, F. oxysporum, Phomopsis viticola, and P. obscurans was evaluated using 96-well plate microbioassay format. Each chemical was evaluated in duplicate at each dose (0.3, 3.0 and 30.0 μM). […]
# F. oxysporum = format: cell-based, Fusarium oxysporum; settings: for Percent inhibition−Percent Stimulation±SEM: F. oxysporum; for inhibition at 0.3 µM / inhibition at 3 µM / inhibition at 30 µM: Fusarium oxysporum, read-out: Percent inhibition−Percent Stimulation±SEM
# From the text: as §1, §2, §3, §4
# C. gloeosporioides = format: cell-based, Colletotrichum gloeosporioides; settings: for Percent inhibition−Percent Stimulation±SEM: C. gloeosporioides; for inhibition at 0.3 µM / inhibition at 3 µM / inhibition at 30 µM: Colletotrichum gloeosporioides, read-out: Percent inhibition−Percent Stimulation±SEM
# From the text: as §1, §2, §3, §4
# C. fragariae = format: cell-based, Colletotrichum fragariae; settings: for Percent inhibition−Percent Stimulation±SEM: C. fragariae; for inhibition at 0.3 µM / inhibition at 3 µM / inhibition at 30 µM: Colletotrichum fragariae, read-out: Percent inhibition−Percent Stimulation±SEM
# From the text: as §1, §2, §3, §4
# C. acutatum = format: cell-based, Colletotrichum acutatum; settings: for Percent inhibition−Percent Stimulation±SEM: C. acutatum; for inhibition at 0.3 µM / inhibition at 3 µM / inhibition at 30 µM: Colletotrichum acutatum, read-out: Percent inhibition−Percent Stimulation±SEM
# From the text: as §1, §2, §3, §4
smiles,measurement,setting,value
N#CC(CCc1ccc(Cl)cc1)(Cn1cncn1)c1ccccc1 (stereo not drawn) [Fenbucanazole],Percent inhibition−Percent Stimulation±SEM,"B. cinerea; 0.3 μM, 48 hrs",−46.0 ± 34.2%
same,Percent inhibition−Percent Stimulation±SEM,"B. cinerea; 0.3 μM, 72 hrs",−49.6 ± 24.7%
same,Percent inhibition−Percent Stimulation±SEM,"B. cinerea; 3.0 μM, 48 hrs",−35.9 ± 28.3%
same,Percent inhibition−Percent Stimulation±SEM,"B. cinerea; 3.0 μM, 72 hrs",−47.0 ± 23.0%
same,Percent inhibition−Percent Stimulation±SEM,"B. cinerea; 30 μM, 48 hrs",17.6 ± 52.2%
same,Percent inhibition−Percent Stimulation±SEM,"B. cinerea; 30 μM, 72 hrs",−29.9 ± 24.2%
same,Percent inhibition−Percent Stimulation±SEM,"F. oxysporum; 0.3 μM, 48 hrs",−15.3 ± 2.6%
same,Percent inhibition−Percent Stimulation±SEM,"F. oxysporum; 0.3 μM, 72 hrs",−10.4 ± 2.7%
same,Percent inhibition−Percent Stimulation±SEM,"F. oxysporum; 3.0 μM, 48 hrs",−33.1 ± 4.2%
same,Percent inhibition−Percent Stimulation±SEM,"F. oxysporum; 3.0 μM, 72 hrs",−29.3 ± 2.6%
same,Percent inhibition−Percent Stimulation±SEM,"F. oxysporum; 30 μM, 48 hrs",−45.5 ± 3.4%
same,Percent inhibition−Percent Stimulation±SEM,"F. oxysporum; 30 μM, 72 hrs",−44.5 ± 2.5%
same,Percent inhibition−Percent Stimulation±SEM,"C. gloeosporioides; 0.3 μM, 48 hrs",−86.1 ± 1.4%
same,Percent inhibition−Percent Stimulation±SEM,"C. gloeosporioides; 0.3 μM, 72 hrs",−59.1 ± 3.6%
same,Percent inhibition−Percent Stimulation±SEM,"C. gloeosporioides; 3.0 μM, 48 hrs",−95.0 ± 1.1%
same,Percent inhibition−Percent Stimulation±SEM,"C. gloeosporioides; 3.0 μM, 72 hrs",−98.1 ± 0.4%
same,Percent inhibition−Percent Stimulation±SEM,"C. gloeosporioides; 30 μM, 48 hrs",−99.0 ± 0.7%
same,Percent inhibition−Percent Stimulation±SEM,"C. gloeosporioides; 30 μM, 72 hrs",−99.6 ± 0.2%
same,Percent inhibition−Percent Stimulation±SEM,"C. fragariae; 0.3 μM, 48 hrs",−26.8 ± 14.1%
same,Percent inhibition−Percent Stimulation±SEM,"C. fragariae; 0.3 μM, 72 hrs",19.0 ± 7.7%
same,Percent inhibition−Percent Stimulation±SEM,"C. fragariae; 3.0 μM, 48 hrs",−37.0 ± 15.3%
same,Percent inhibition−Percent Stimulation±SEM,"C. fragariae; 3.0 μM, 72 hrs",4.7 ± 4.2%
same,Percent inhibition−Percent Stimulation±SEM,"C. fragariae; 30 μM, 48 hrs",−99.3 ± 1.1%
same,Percent inhibition−Percent Stimulation±SEM,"C. fragariae; 30 μM, 72 hrs",−97.7 ± 0.6%
same,Percent inhibition−Percent Stimulation±SEM,"C. acutatum; 0.3 μM, 48 hrs",13.0 ± 5.8%
same,Percent inhibition−Percent Stimulation±SEM,"C. acutatum; 0.3 μM, 72 hrs",16.3 ± 5.4%
same,Percent inhibition−Percent Stimulation±SEM,"C. acutatum; 3.0 μM, 48 hrs",−3.8 ± 4.8%
same,Percent inhibition−Percent Stimulation±SEM,"C. acutatum; 3.0 μM, 72 hrs",−89.9 ± 6.8%
same,Percent inhibition−Percent Stimulation±SEM,"C. acutatum; 30 μM, 48 hrs",−39.2 ± 3.3%
same,Percent inhibition−Percent Stimulation±SEM,"C. acutatum; 30 μM, 72 hrs",−21.7 ± 5.8%
O=C1C2CC=CCC2C(=O)N1SC(Cl)(Cl)Cl (stereo not drawn) [Captan],inhibition at 0.3 µM,B. cinerea; 48 h,-55.9 ± 24.7%
same,inhibition at 3 µM,B. cinerea; 48 h,38.4 ± 23.5%
same,inhibition at 30 µM,B. cinerea; 48 h,58 ± 23.2%
same,inhibition at 0.3 µM,B. cinerea; 72 h,40.7 ± 16.3%
same,inhibition at 3 µM,B. cinerea; 72 h,54.6 ± 22.9%
same,inhibition at 30 µM,B. cinerea; 72 h,54 ± 17.9%
same,inhibition at 0.3 µM,F. oxysporum; 48 h,2.8 ± 4.7%
same,inhibition at 3 µM,F. oxysporum; 48 h,77.2 ± 7.2%
same,inhibition at 30 µM,F. oxysporum; 48 h,100 ± 0.4%
same,inhibition at 0.3 µM,F. oxysporum; 72 h,-4.7 ± 2.1%
same,inhibition at 3 µM,F. oxysporum; 72 h,24.1 ± 6.5%
same,inhibition at 30 µM,F. oxysporum; 72 h,99.8 ± 0.2%
same,inhibition at 0.3 µM,C. gloeosporioides; 48 h,-4.4 ± 4.4%
same,inhibition at 3 µM,C. gloeosporioides; 48 h,96.3 ± 2.1%
same,inhibition at 30 µM,C. gloeosporioides; 48 h,99.7 ± 0.6%
same,inhibition at 0.3 µM,C. gloeosporioides; 72 h,-15.3 ± 2.1%
same,inhibition at 3 µM,C. gloeosporioides; 72 h,97.9 ± 0.7%
same,inhibition at 30 µM,C. gloeosporioides; 72 h,100 ± 0.3%
same,inhibition at 0.3 µM,C. fragariae; 48 h,-20.5 ± 9.5%
same,inhibition at 3 µM,C. fragariae; 48 h,98.1 ± 0.6%
same,inhibition at 30 µM,C. fragariae; 48 h,98.8 ± 0.8%
same,inhibition at 0.3 µM,C. fragariae; 72 h,-14.9 ± 2.2%
same,inhibition at 3 µM,C. fragariae; 72 h,97.8 ± 1.6%
same,inhibition at 30 µM,C. fragariae; 72 h,99.5 ± 0.3%
same,inhibition at 0.3 µM,C. acutatum; 48 h,-2.7 ± 2.4%
same,inhibition at 3 µM,C. acutatum; 48 h,98.8 ± 0.4%
same,inhibition at 30 µM,C. acutatum; 48 h,99.5 ± 0.3%
same,inhibition at 0.3 µM,C. acutatum; 72 h,-9.5 ± 1.5%
same,inhibition at 3 µM,C. acutatum; 72 h,94.8 ± 0.2%
same,inhibition at 30 µM,C. acutatum; 72 h,99.6 ± 0.2%
